# Experimental data from patent publication US10815239B2, “Compounds useful as inhibitors of ATR kinase” (Vertex Pharmaceuticals Incorporated, priority 2013, dated 2020).
# Target: T1, full-length ATR (Homo sapiens, UniProt Q13535)
# T1 construct: Assays are carried out at 25° C. in the presence of 5 nM full-length ATR
# Experiment: ATR Inhibition Assay (radioactive-phosphate incorporation)
# Assay type: biochemical
# Conditions: 5 nM full-length ATR, 10 μM ATP, 800 μM target peptide, 25° C.; read-out: Ki (Ki(app)) for inhibition of ATR
# Description: Compounds can be screened for their ability to inhibit ATR kinase using a radioactive-phosphate incorporation assay. Assays are carried out in a mixture of 50 mM Tris/HCl (pH 7.5), 10 mM MgCl2 and 1 mM DTT. Final substrate concentrations are 10 μM [γ-33P]ATP (3 mCi 33P ATP/mmol ATP, Perkin Elmer) and 800 μM target peptide (ASELPASQPQPFSAKKK).
# Assays are carried out at 25° C. in the presence of 5 nM full-length ATR. An assay stock buffer solution is prepared containing all of the reagents listed above, with the exception of ATP and the test compound of interest. 13.5 μL of the stock solution is placed in a 96 well plate followed by addition of 2 μL of DMSO stock containing serial dilutions of the test compound (typically starting from a final concentration of 15 μM with 3-fold serial dilutions) in duplicate (final DMSO concentration 7%). The plate is pre-incubated for 10 minutes at 25° C. and the reaction initiated by addition of 15 μL [γ-33P]ATP (final concentration 10 μM).
# The reaction is stopped after 24 hours by the addition of 30 μL 0.1M phosphoric acid containing 2 mM ATP. […]
# After removing mean background values for all of the data points, Ki(app) data are calculated from non-linear regression analysis of the initial rate data using the Prism software package (GraphPad Prism version 3.0cx for Macintosh, GraphPad Software, San Diego Calif., USA).
# T1 sequence (Q13535 whole entry): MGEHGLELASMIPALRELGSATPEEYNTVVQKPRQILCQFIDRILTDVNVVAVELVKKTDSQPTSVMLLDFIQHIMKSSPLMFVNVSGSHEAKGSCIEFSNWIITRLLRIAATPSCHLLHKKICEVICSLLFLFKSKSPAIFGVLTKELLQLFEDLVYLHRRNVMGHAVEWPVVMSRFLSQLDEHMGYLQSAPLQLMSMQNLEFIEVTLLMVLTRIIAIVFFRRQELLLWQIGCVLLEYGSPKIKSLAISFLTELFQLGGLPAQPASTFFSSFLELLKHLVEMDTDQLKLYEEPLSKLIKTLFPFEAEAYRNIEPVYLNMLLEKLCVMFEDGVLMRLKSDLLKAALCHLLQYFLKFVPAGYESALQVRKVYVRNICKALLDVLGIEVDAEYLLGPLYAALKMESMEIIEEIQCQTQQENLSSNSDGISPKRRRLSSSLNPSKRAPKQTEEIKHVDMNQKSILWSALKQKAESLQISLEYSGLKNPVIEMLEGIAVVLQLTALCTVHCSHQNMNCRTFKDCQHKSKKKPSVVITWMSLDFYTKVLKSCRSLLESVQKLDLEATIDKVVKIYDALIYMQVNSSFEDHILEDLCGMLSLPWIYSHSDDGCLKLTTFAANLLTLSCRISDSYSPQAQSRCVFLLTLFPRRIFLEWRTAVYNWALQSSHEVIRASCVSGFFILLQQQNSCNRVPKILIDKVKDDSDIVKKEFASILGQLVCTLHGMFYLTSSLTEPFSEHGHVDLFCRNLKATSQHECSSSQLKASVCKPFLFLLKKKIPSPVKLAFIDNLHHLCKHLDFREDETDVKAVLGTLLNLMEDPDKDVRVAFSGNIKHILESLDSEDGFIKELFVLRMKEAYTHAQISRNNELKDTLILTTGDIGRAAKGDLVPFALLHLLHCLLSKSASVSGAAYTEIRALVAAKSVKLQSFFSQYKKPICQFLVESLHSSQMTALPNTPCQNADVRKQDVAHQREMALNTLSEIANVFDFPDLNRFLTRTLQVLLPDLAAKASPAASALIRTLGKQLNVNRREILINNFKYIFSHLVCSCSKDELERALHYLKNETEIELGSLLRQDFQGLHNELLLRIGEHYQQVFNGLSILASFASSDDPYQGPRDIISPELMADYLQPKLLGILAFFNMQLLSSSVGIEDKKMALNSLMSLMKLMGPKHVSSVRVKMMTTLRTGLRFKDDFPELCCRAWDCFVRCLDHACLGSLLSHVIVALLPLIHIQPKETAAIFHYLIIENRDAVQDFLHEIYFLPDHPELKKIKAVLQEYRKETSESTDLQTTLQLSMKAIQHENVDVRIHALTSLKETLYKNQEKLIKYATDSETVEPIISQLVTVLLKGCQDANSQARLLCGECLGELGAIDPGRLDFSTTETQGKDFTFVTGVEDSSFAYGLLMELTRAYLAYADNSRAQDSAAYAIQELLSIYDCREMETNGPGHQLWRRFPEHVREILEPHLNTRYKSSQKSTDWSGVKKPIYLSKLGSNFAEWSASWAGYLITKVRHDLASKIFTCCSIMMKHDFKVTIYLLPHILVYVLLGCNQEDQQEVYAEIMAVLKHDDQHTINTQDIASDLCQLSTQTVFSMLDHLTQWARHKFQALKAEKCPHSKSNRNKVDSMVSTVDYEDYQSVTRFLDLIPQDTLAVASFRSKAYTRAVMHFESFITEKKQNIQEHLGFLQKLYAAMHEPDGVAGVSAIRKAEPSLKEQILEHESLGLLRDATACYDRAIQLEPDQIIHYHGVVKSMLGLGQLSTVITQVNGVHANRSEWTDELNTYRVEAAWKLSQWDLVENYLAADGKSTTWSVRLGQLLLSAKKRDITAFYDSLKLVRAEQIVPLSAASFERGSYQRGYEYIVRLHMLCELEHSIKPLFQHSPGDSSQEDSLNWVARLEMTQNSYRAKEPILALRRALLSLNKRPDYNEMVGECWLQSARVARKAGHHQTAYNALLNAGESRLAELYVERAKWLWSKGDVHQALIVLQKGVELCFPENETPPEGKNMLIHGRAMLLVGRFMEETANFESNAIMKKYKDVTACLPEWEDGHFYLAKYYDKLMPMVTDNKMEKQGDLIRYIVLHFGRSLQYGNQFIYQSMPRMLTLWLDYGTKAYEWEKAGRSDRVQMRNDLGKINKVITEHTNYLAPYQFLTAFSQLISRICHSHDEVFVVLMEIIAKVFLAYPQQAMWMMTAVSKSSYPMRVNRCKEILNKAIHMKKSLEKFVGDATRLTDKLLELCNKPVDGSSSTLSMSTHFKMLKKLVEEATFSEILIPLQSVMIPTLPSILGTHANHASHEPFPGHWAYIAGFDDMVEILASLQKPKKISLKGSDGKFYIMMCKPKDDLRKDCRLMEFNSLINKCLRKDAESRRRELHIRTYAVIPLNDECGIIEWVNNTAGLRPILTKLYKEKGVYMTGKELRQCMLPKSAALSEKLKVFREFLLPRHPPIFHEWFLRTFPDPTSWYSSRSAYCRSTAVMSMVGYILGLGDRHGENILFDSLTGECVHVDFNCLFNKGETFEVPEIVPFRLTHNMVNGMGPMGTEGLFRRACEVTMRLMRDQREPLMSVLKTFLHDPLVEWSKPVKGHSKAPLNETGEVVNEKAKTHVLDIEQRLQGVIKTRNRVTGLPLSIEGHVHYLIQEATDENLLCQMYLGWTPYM
row,Ki [µM],Structure (SMILES)
1,< 1,"Nc1nn2cc(F)cnc2c1C(=O)Nc1cncc(F)c1N1CCC(C(=O)N2CCN(C3COC3)CC2)CC1 [Compound I-1, 2-amino-6-fluoro-N-[5-fluoro-4-[4-[4-(oxetan-3-yl)piperazine-1-carbonyl]-1-piperidyl]-3-pyridyl]pyrazolo[1,5-a]pyrimidine-3-carboxamide]"
2,< 1,"[2H]C1([2H])N(C(=O)C2CCN(c3c(F)cncc3NC(=O)c3c(N)nn4cc(F)cnc34)CC2)C([2H])([2H])C([2H])([2H])N(C2COC2)C1([2H])[2H] [Compound I-3, 2-amino-6-fluoro-N-(5-fluoro-4-(4-(2,2,3,3,5,5,6,6-octadeutero-4-(oxetan-3-yl)piperazine-1-carbonyl)piperidin-1-yl)-3-pyridyl)pyrazolo[1,5-a]pyrimidine-3-carboxamide]"
